Measured values: patent US8513232B2, “Substituted spirocyclic piperidine derivatives as histamine-3 (H3) receptor ligands” (Cephalon, Inc., priority 2008, dated 2013)
Like-named read-outs stand apart in the source and are kept apart here.

How the values were obtained:
human H3 receptor = target: T1, human H3 receptor (Homo sapiens, UniProt Q9Y5N1); assay: Human H3 radioligand binding ([3H]-N-alpha-methylhistamine, SPA)
T1 construct: expressed in transfected cells
Outline: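 Compounds (0.01 nM-30 μM) competed with approximately 1 nM [3H]-N-alpha-methylhistamine for human H3 receptor in membranes of stably transfected CHO cells, 10 μg protein per well, in Tris-HCl pH 7.4/MgCl2/BSA buffer for 4 h at room temperature. Bound radioligand measured by scintillation proximity; 10 μM clobenpropit gave non-specific binding.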

[1] = target: T2, rat histamine H3 receptor (Rattus norvegicus, UniProt Q9QYN8); assay: Rat H3 radioligand binding ([3H]-N-alpha-methylhistamine, SPA)
T2 construct: encoding the entire 445-amino-acid rat histamine H3 receptor; expressed in transfected cells; membrane preparation
T2 sequence (Q9QYN8 whole entry): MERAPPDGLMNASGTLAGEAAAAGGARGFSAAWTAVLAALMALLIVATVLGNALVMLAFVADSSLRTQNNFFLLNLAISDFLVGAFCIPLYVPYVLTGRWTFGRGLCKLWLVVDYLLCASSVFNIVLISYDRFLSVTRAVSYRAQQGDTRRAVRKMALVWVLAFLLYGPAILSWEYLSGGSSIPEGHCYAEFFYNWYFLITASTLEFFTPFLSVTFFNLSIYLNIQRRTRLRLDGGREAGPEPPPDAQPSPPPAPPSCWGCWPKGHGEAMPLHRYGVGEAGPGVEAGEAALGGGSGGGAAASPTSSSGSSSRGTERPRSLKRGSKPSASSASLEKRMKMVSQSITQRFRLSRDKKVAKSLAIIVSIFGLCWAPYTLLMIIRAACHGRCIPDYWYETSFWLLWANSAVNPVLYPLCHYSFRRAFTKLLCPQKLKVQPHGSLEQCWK
Outline: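 SPA-bead binding assay using [3H]-N-alpha-methylhistamine (approximately 1 nM final) with test compounds from 0.01 nM to 30 μM. Rat H3 receptor membranes came from stably transfected CHO-A3 cells; incubation ran 4 h at room temperature, in the dark, in Tris pH 7.4 buffer with MgCl2 and BSA. Clobenpropit (10 μM) gave non-specific binding.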

[2] = Human H3 binding, Table B, Examples 136-362, read-out: hum H3 binding Ki
[3] = Rat H3 binding, Table B, Examples 136-362, read-out: rat H3 binding Ki
[4] = human H3 binding, Table D, read-out: Human H3 Ki
[5] = rat H3 binding, Table D, read-out: Rat H3 Ki
[6] = Table C, human H3 binding, read-out: Human H3 Ki
[7] = Table C, rat H3 binding, read-out: Rat H3 Ki
[8] = Table A, human H3 binding, read-out: Human Ki
[9] = Table A, rat H3 binding, read-out: Rat Ki

T1 sequence (Q9Y5N1 whole entry): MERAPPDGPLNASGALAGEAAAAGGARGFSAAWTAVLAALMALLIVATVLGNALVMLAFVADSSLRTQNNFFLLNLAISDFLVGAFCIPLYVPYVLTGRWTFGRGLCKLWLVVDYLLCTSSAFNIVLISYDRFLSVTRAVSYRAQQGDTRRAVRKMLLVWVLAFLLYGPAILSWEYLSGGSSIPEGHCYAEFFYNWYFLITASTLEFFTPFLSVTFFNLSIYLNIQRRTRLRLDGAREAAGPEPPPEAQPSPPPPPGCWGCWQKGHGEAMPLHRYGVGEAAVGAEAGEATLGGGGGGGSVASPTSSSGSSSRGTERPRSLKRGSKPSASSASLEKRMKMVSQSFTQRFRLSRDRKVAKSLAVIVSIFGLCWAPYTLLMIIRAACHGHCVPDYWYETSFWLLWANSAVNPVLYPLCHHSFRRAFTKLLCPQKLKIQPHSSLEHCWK

SMILES | melting point | Ki (human H3 receptor; [4]) | Ki [1, 5] | further results
O=C(Nc1ccc2c(c1)COC1(CCN(C3CCC3)CC1)O2)c1ccnc(N2CCCC2)c1 [Example 309] | 234 to 236 °C | – | – | Ki (human H3 receptor; [2]): < 200 nM; Ki [1, 3]: < 200 nM
Cc1cc(=O)n(C(C)C)cc1-c1ccc2c(c1)COC1(CCN(C3CCC3)CC1)O2 [Example 759] | 65 to 68 °C | < 200 nM | < 200 nM | –
Cc1noc(C2CCN(c3ccc4c(c3)COC3(CCN(C5CCC5)CC3)O4)CC2)n1 [Example 628] | 125 to 126.2 °C | < 200 nM | < 200 nM | –
Cc1ncoc1C(=O)Nc1ccc2c(c1)CCC1(CCN(C3CCC3)CC1)O2 [Example 243] | 169 to 171 °C | – | – | Ki (human H3 receptor; [2]): < 200 nM; Ki [1, 3]: < 200 nM
CCN(CC)C(=O)N1CCN(c2ccc3c(c2)CCC2(CCN(C4CCC4)CC2)O3)CC1 [Example 394] | 272 to 274 °C | – | – | Ki (human H3 receptor; [6]): < 200 nM; Ki [1, 7]: < 200 nM
CNS(=O)(=O)c1ccc(-c2ccc3c(c2)COC2(CCN(C4CCC4)CC2)O3)cc1Cl [Example 620] | 127 to 129 °C | < 200 nM | < 200 nM | –
CCOC(=O)C1CCN(c2ccc3c(c2)CCC2(CCN(C4CCC4)CC2)O3)CC1 [Example 384] | 256 to 258 °C | – | – | Ki (human H3 receptor; [6]): < 200 nM; Ki [1, 7]: < 200 nM
Cc1cc(C(=O)Nc2ccc3c(c2)COC2(CCN(C4CCC4)CC2)O3)cc(C)n1 [Example 296] | 191 to 193 °C | – | – | Ki (human H3 receptor; [2]): < 200 nM; Ki [1, 3]: < 200 nM
CN(C)C(=O)NC1CCN(c2ccc3c(c2)COC2(CCN(C4CCC4)CC2)O3)CC1 [Example 329] | 193 to 195.2 °C | – | – | Ki (human H3 receptor; [2]): < 200 nM; Ki [1, 3]: < 200 nM
CN(C)c1ncc(-c2ccc3c(c2)COC2(CCN(C4CCC4)CC2)O3)cn1 [Example 42] | 204.8 to 205.8 °C | – | – | Ki (human H3 receptor; [8]): < 200 nM; Ki [1, 9]: < 200 nM
CN(C)C(=O)c1cccc2c1ccn2-c1ccc2c(c1)COC1(CCN(C3CCC3)CC1)O2 [Example 85] | 76 to 80 °C | – | – | Ki (human H3 receptor; [8]): < 200 nM; Ki [1, 9]: < 200 nM
COCCNC(=O)c1c(F)cc(-c2ccc3c(c2)CCC2(CCN(C4CCC4)CC2)O3)cc1F [Example 256] | 64.9 to 65.4 °C | – | – | Ki (human H3 receptor; [2]): < 200 nM; Ki [1, 3]: < 200 nM
CNC(=O)c1ccc(-c2ccc3c(c2)COC2(CCN(C4CCC4)CC2)O3)cc1Cl [Example 225] | 276 to 277 °C | – | – | Ki (human H3 receptor; [2]): < 200 nM; Ki [1, 3]: < 200 nM
O=C(Nc1ccc2c(c1)COC1(CCN(C3CCC3)CC1)O2)c1ccncc1 [Example 150] | 180 to 182 °C | – | – | Ki (human H3 receptor; [2]): < 200 nM; Ki [1, 3]: < 200 nM
O=C1OCCN1c1ccc2c(c1)CCC1(CCN(C3CCC3)CC1)O2 [Example 119] | 186 to 188 °C | – | – | Ki (human H3 receptor; [8]): < 200 nM; Ki [1, 9]: < 200 nM
N#Cc1cnc(Nc2ccc3c(c2)COC2(CCN(C4CCC4)CC2)O3)s1 [Example 128] | 217 to 218 °C | – | – | Ki (human H3 receptor; [8]): < 200 nM; Ki [1, 9]: < 200 nM
O=C(NC1CCOCC1)c1ccc(-c2ccc3c(c2)COC2(CCN(C4CCC4)CC2)O3)cc1F [Example 640] | 165 to 167 °C | < 200 nM | < 200 nM | –
Cn1cc2c(n1)CCN(c1ccc3c(c1)CCC1(CCN(C4CCC4)CC1)O3)C2 [Example 430] | 132 to 134 °C | – | – | Ki (human H3 receptor; [6]): < 200 nM; Ki [1, 7]: < 200 nM
O=c1ccc(-c2ccc3c(c2)COC2(CCN(C4CCC4)CC2)O3)c[nH]1 [Example 168] | 145 to 147 °C | – | – | Ki (human H3 receptor; [2]): < 200 nM; Ki [1, 3]: < 200 nM
O=C(NC[C@@H]1CCCO1)c1ccc(-c2ccc3c(c2)COC2(CCN(C4CCC4)CC2)O3)cc1Cl [Example 585] | 159 to 161 °C | < 200 nM | < 200 nM | –
OC(c1ccncc1)c1ccc2c(c1)COC1(CCN(C3CCC3)CC1)O2 (stereo not drawn) [Example 683] | 69 to 72 °C | < 200 nM | < 200 nM | –
CN(C)S(=O)(=O)c1ccc(-c2ccc3c(c2)COC2(CCN(C4CCC4)CC2)O3)cc1Cl [Example 621] | 97 to 99 °C | < 200 nM | < 200 nM | –
COCCN(C)C(=O)c1ccc(-c2ccc3c(c2)CCC2(CCN(C4CCC4)CC2)O3)cc1 [Example 303] | 225 to 227 °C | – | – | Ki (human H3 receptor; [2]): < 200 nM; Ki [1, 3]: < 200 nM
O=C(NC1CCOCC1)c1ccc(-c2ccc3c(c2)COC2(CCN(C4CCC4)CC2)O3)c(Cl)c1 [Example 686] | 170 to 173 °C | < 200 nM | < 200 nM | –
O=C(N1CCOCC1)N1CCN(c2ccc3c(c2)CCC2(CCN(C4CCC4)CC2)O3)CC1 [Example 386] | 292 to 294 °C | – | – | Ki (human H3 receptor; [6]): < 200 nM; Ki [1, 7]: < 200 nM

SMILES | melting point | Ki (human H3 receptor; [4]) | Ki [1, 5] | further results
O=C(N[C@H]1CCOC1)c1ccc(-c2ccc3c(c2)COC2(CCN(C4CCC4)CC2)O3)cc1 [Example 600] | 205 to 207 °C | < 200 nM | < 200 nM | –
CS(=O)(=O)c1ccc(COc2ccc3c(c2)CCC2(CCN(C4CCC4)CC2)O3)cc1 [Example 617] | 142 to 146 °C | < 200 nM | < 200 nM | –
O=C(c1ccc(-c2ccc3c(c2)CCC2(CCN(C4CCC4)CC2)O3)cc1F)N1CCC(O)CC1 [Example 240] | 102.8 to 104.6 °C | – | – | Ki (human H3 receptor; [2]): < 200 nM; Ki [1, 3]: < 200 nM
O=C1CC(c2ccc3c(c2)COC2(CCN(C4CCC4)CC2)O3)CCN1 (stereo not drawn) [Example 565] | 182 to 184 °C | – | – | Ki (human H3 receptor; read-out: Human H3 Ki): < 200 nM; Ki ([1]; read-out: Rat H3 kI): < 200 nM
Nc1ccc(-c2ccc3c(c2)COC2(CCN(C4CCC4)CC2)O3)cn1 [Example 566] | 201 to 203 °C | – | – | Ki (human H3 receptor; read-out: Human H3 Ki): < 200 nM; Ki ([1]; read-out: Rat H3 kI): < 200 nM
O=S1(=O)CCC(O)(c2ccc3c(c2)COC2(CCN(C4CCC4)CC2)O3)CC1 [Example 517] | 240 to 241 °C | – | – | Ki (human H3 receptor; read-out: Human H3 Ki): < 200 nM; Ki ([1]; read-out: Rat H3 kI): < 200 nM
CCOC1CCN(c2ccc3c(c2)CCC2(CCN(C4CCC4)CC2)O3)CC1 [Example 391] | 285 to 290 °C | – | – | Ki (human H3 receptor; [6]): < 200 nM; Ki [1, 7]: < 200 nM
OC1(c2ccc3c(c2)COC2(CCN(C4CCC4)CC2)O3)CCC2(CC1)OCCO2 [Example 492] | 191 to 192 °C | – | – | Ki (human H3 receptor; read-out: Human H3 Ki): < 200 nM; Ki ([1]; read-out: Rat H3 kI): < 200 nM
CNC(=O)c1ccc(-c2ccc3c(c2)CCOC2(CCN(C4CCC4)CC2)O3)cn1 [Example 175] | 141 to 142.2 °C | – | – | Ki (human H3 receptor; [2]): 200 to 1000 nM; Ki [1, 3]: > 1000 nM
c1cnc(-c2ccc3c(c2)COC2(CCN(C4CCC4)CC2)O3)cn1 [Example 71] | 114 to 115 °C | – | – | Ki (human H3 receptor; [8]): < 200 nM; Ki [1, 9]: < 200 nM
N#Cc1ccc(-c2ccc3c(c2)COC2(CCN(C4CCC4)CC2)O3)cn1 [Example 34] | 159.8 to 160.7 °C | – | – | Ki (human H3 receptor; [8]): < 200 nM; Ki [1, 9]: < 200 nM
CCS(=O)(=O)c1ccc(-c2ccc3c(c2)COC2(CCN(C4CCC4)CC2)O3)cc1Cl [Example 625] | 157 to 159 °C | < 200 nM | < 200 nM | –
O=c1cc(-c2ccc3c(c2)COC2(CCN(C4CCC4)CC2)O3)cc[nH]1 [Example 475] | 211 to 213 °C | – | – | Ki (human H3 receptor; read-out: Human H3 Ki): < 200 nM; Ki ([1]; read-out: Rat H3 kI): < 200 nM
O=C1N(c2ccc(C(F)(F)F)nc2)CCN1c1ccc2c(c1)COC1(CCN(C3CCC3)CC1)O2 [Example 242] | 222 to 224 °C | – | – | Ki (human H3 receptor; [2]): < 200 nM; Ki [1, 3]: < 200 nM
[O-][S+]1CC=C(c2ccc3c(c2)COC2(CCN(C4CCC4)CC2)O3)CC1 (stereo not drawn) [Example 461] | 155 to 158 °C | – | – | Ki (human H3 receptor; read-out: Human H3 Ki): < 200 nM; Ki ([1]; read-out: Rat H3 kI): < 200 nM
O=c1ncc(Oc2ccc3c(c2)CCC2(CCN(C4CCC4)CC2)O3)c[nH]1 [Example 495] | 259 to 261 °C | – | – | Ki (human H3 receptor; read-out: Human H3 Ki): < 200 nM; Ki ([1]; read-out: Rat H3 kI): < 200 nM
O=C(c1ccc(-c2ccc3c(c2)COC2(CCN(C4CCC4)CC2)O3)cc1F)N1CCOCC1 [Example 642] | 161 to 162 °C | < 200 nM | < 200 nM | –
COc1ccc(-c2ccc3c(c2)COC2(CCN(C(C)(C)C)CC2)O3)cn1 [Example 732] | 152 to 154 °C | < 200 nM | < 200 nM | –
Cc1cc(-c2ccc3c(c2)COC2(CCN(C4CCC4)CC2)O3)cnc1O [Example 609] | 95.2 to 97 °C | < 200 nM | < 200 nM | –
Cc1ncccc1-c1ccc2c(c1)COC1(CCN(C3CCC3)CC1)O2 [Example 744] | 197 to 199 °C | < 200 nM | < 200 nM | –
O=c1[nH]ccc(-c2ccc3c(c2)COC2(CCN(C4CCC4)CC2)O3)c1Cl [Example 666] | 230 to 232 °C | < 200 nM | < 200 nM | –
CC(=O)OC1(c2ccc3c(c2)COC2(CCN(C4CCC4)CC2)O3)CC(C(=O)N2CCCC2)C1 (stereo not drawn) [Example 541] | 72 to 74 °C | – | – | Ki (human H3 receptor; read-out: Human H3 Ki): < 200 nM; Ki ([1]; read-out: Rat H3 kI): < 200 nM
Cc1cc(C(N)=O)cc(C)c1-c1ccc2c(c1)COC1(CCN(C3CCC3)CC1)O2 [Example 751] | 156 to 158 °C | < 200 nM | < 200 nM | –
COc1ccc(-c2ccc3c(c2)COC2(CCN(C4CCC4)CC2)O3)c(C)n1 [Example 726] | 131 to 133 °C | < 200 nM | < 200 nM | –
